Experimental data as given in patent US20030077768A1, “Use of xylene monooxygenase for the oxidation of substituted polycyclic aromatic compounds” (priority 2001, published 2003).

Legend:
[1] = Aqueous solubility (statement); type: physicochemical
[2] = tested on: ASU1 xylene monooxygenase; assay: Oxidation of 2,6-DMN by Escherichia coli recombinant with cloned ASU1 xylene monooxygenase genes (Clone 4a); type: cell-based, Sphingomonas strain ASU1; conditions: E. coli Clone 4a; M9 medium; 24 mg 2,6-DMN in FC-75 carrier phase; 37° C.; HPLC and GC/MS; metabolites 6-M-2-HMN, 6-M-2-NA, 2,6-NDC
Protocol: (§1) HPLC system used was a Hewlett Packard 1100 series with a photo diode array detector and LC/MSD-ESI Negative ion. Column used was Hewlett Packard part #880975-902 Zorbax® SB-C18 (4.6×12.5 mm, 5 micron), purchased from Agilient Technologies (Foster City, Calif.). The column temperature was controlled at 30° C. Mobile phase was […] ammonium acetate [20 mL 1 M ammonium acetate in 1800 mL water (solvent-2=S-2)] and acetonitrile (Solvent-1=S-1). The gradient used was 0-3 min 10% S-1 and 90% S-2, gradient was increased to 100% S-1 in 33 min, and again reduced to 10% S-1 and 90% S-2 in 3 min. Flow rate used for the mobile phase was 0.9 mL/min. 100 μL samples were injected, 230 nm wavelength was used for detection of the intermediates of 2,6-dimethylnaphthalene. Intermediates were prepared by as follows, as intermediates needed were not available in the market. Intermediates prepared were 6-methyl-2-napthoic acid, 6-methyl-2-hydroxymethylnaphthalene, and 2,6-Bis(hydroxymethyl)naphthalene. The retention time and diode array scans of the intermediates matched with the prepared standards. The mass spectrometer fragmentation pattern of the 6-methyl-2-napthoic acid in the sample matched that of the standards prepared.
(§2) GC/MS was also used to analyze the samples. […]
(§3) The conversion of 2,6-DMN to 2,6-NDC was monitored by reverse phase HPLC. […]

Sphingomonas strain ASU1 = assay: Carbon source utilization (growth on S12 agar) by strain ASU1; type: cell-based; conditions: compound as sole source of carbon and energy, 28° C., listed as 2,6-DMN
Protocol: S12 agar was used to isolate bacteria from liquid enrichment cultures that grow on 2,6-DMN and to test isolates for growth with various sources of carbon and energy. S12 agar was prepared by adding 1.5% Noble agar (DIFCO) to S12 medium.
Since 2,6-DMN has low aqueous solubility, bacteria growing in S12 medium were supplied with 2,6-DMN by adding a few flakes of the compound directly to the culture. Bacteria growing on S12 agar were supplied with naphthalene, 2-methylnapthalene or 2,6-DMN by placing a few flakes of the compound on the interior of the petri dish lid. All petri dishes were sealed with parafilm and incubated with the lid on the bottom.
Bacteria that grow on 2,6-DMN were isolated from an enrichment culture. The enrichment culture was established by inoculating 0.1 mL of activated sludge into 10 mL of S12 medium in a 125 mL screw cap Erlenmeyer flask. The activated sludge was obtained from a DuPont wastewater treatment facility. The enrichment culture was supplemented with adding yeast extract (0.001% final concentration) by adding a few flakes of 2,6-DMN directly to the culture medium. The enrichment culture was incubated at 28° C. with reciprocal shaking. The culture was diluted every 4 to 7 d by replacing 9 mL of the culture with the same volume of S12 medium with 0.001% yeast extract and a few additional flakes of 2,6-DMN. […]

[3] = molecular target: T1, pWWO xylene monooxygenase (Pseudomonas putida, UniProt P21395); assay: Oxidation of 2,6-DMN by Escherichia coli recombinant with cloned pWWO xylene monooxygenase genes (Clone 6f); type: cell-based; conditions: E. coli Clone 6f; M9 medium; 24 mg 2,6-DMN in FC-75 carrier phase; 37° C.; HPLC and GC/MS; metabolites 6-M-2-HMN, 6-M-2-NA, 2,6-HMN
T1 construct: A fragment of pWWO DNA that contained xylM and xylA was cloned into a small, multicopy plasmid; expressed in transfected cells; host or cells: Escherichia coli TOP10 carrying pCR2.1-TOPO with the 2.4 kb pWWO xylM-xylA PCR fragment from strain ATCC 33015 (Clone 6f)
Protocol: as §1, §2, §3

T1 sequence (P21395 whole entry, the tested form may be a part): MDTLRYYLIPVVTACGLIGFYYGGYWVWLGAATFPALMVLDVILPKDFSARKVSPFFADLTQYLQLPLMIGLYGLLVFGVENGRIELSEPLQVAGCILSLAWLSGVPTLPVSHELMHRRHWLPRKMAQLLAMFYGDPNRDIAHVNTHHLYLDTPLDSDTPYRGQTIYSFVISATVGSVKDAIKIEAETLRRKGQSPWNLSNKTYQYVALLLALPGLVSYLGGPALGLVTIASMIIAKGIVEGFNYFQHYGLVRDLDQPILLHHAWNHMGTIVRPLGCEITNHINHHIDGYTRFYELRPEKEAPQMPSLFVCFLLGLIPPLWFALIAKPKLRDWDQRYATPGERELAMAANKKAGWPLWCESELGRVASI

Cc1ccc2cc(C)ccc2c1 [2,6-dimethylnaphthalene, 2,6-Dimethylnaphthalene]
aqueous solubility [1]: low
Substrate for the ASU1 xylene monooxygenase (oxidation by Clone 4a) [2]: substrate
Growth on Carbon Source (Sphingomonas strain ASU1): able to grow
Substrate for the pWWO xylene monooxygenase (oxidation by Clone 6f) [3]: substrate
